Reference: patent publication US8709434B2, “Compositions for inhibiting NADPH oxidase activity” (PCB Associates, Inc., priority 2006, dated 2014)

Legend:
[1] = mice, oral pre-treatment; cited from earlier work
[2] = feeding to cholesterol-fed hamsters; cited from earlier work
[3] = oral, mice and rats, dose range 50-300 mg/kg/day; cited from earlier work
NADPH oxidase [4] = assay: NADPH-induced superoxide production by cellular NADPH oxidase, lucigenin chemiluminescence, human aortic smooth muscle cells; assay type: cell-based; settings: for inhibition of NADPH oxidase superoxide production: 300 nM to 20 μM for 1 h
Experimental: (§1) Human cell cultures derived from aortic smooth muscle were incubated with NADPH to induce superoxide production by cellular NADPH oxidase. Superoxide production was quantified by lucigenin chemiluminescence. Lucigenin is a specific detector of superoxide. […] Phycocyanobilin (PCB, FIG. 2A) or biliverdin (BVD, FIG. 2B) were added to the NADPH-treated cell cultures in concentrations ranging from 300 nM to 20 μM. Biliverdin is another known inhibitor of NADPH oxidase.
(§2) Human aortic smooth muscle cells were purchased from Clonetics (East Rutherford, N.J.). The smooth muscle cells were cultured in a Smooth Muscle Cell Growth Medium (Clonetics) containing 5% fetal calf serum. The cells from 2nd to 5th passages were used in the experiments. Cellular production of superoxide anion was determined by the lucigenin method. For the experiments, cells were detached with trypsin/EDTA and resuspended in modified HEPES buffer containing 140 mM NaCl, 5 mM KCl, 0.8 mM MgCl2, 1.8 mM CaCl2, 1 mM Na2HPO4, 25 mM HEPES, and 1% glucose (pH7.2), and incubated with or without various concentrations of phycocyanobilin (PCB) or biliverdin (BVD) from 300 nM to 20 μM for 1 h. Immediately before recording, NADPH (100 μM) and dark-adapted lucigenin (5 μM) were added to cell suspension. Light emission was recorded every minute for 20 min and was expressed as mean arbitrary light unit/min. Experiments were performed in triplicate. In experiments with inhibition of NAD(P)H oxidase, diphenylene iodonuim cloride (DPI, 10^−5 M), an inhibitor of NAD(P)H oxidase, was added 10 min before NADPH addition and recording of chemiluminescence. This is the first experiment to see the effect of purified phycocyanobilin on NADPH oxidase activity using human aortic smooth muscle cells.

NADPH oxidase [5] = assay: NADPH-induced superoxide production by cellular NADPH oxidase, lucigenin chemiluminescence, human renal mesangial cells; assay type: cell-based; settings: for inhibition of NADPH oxidase superoxide production: 300 nM to 20 μM for 1 h
Experimental: as §1, with “renal mesangial tissue” for “aortic smooth muscle”, “3A)” for “2A)”, “3B)” for “2B)”
as §2, with “mesangial” for “aortic smooth muscle”, “Mesangial” for “Smooth Muscle”, “chemiluminescence.” for “chemiluminescence. This is the first experiment to see the effect of purified phycocyanobilin on NADPH oxidase activity using human aortic smooth muscle cells.”

NADPH oxidase [6] = assay: NADPH-induced superoxide production by cellular NADPH oxidase, lucigenin chemiluminescence, human aortic endothelial cells; assay type: cell-based; settings: for inhibition of NADPH oxidase superoxide production: 300 nM to 20 μM for 1 h
Experimental: as §1, with “endothelium” for “smooth muscle”, “1A)” for “2A)”, “1B)” for “2B)”
as §2, with “aortic endothelial” for “aortic smooth muscle”, “The endothelial cell” for “The smooth muscle cells”, “in endothelial cell basal medium” for “in a Smooth Muscle Cell Growth Medium”, “(Clonetics) supplemented with hFGF-B, VEGF, IGF-1, ascorbic acid hEGF, hydrocortisone and 2%” for “(Clonetics) containing 5%”

[7] = rats; cited from earlier work
[8] = oral administration, compared with bilirubin; cited from earlier work
[9] = compared with bilirubin; cited from earlier work
[10] = mice, concurrent administration; cited from earlier work
[11] = DPI 10^−5 M added 10 min before NADPH (100 μM)

Compound: phycocyanin
- endotoxin-induced shock (severe hypotension and death) [1]: considerable ameliorated
- production of arterial fatty streaks [2]: inhibit the production of arterial fatty streaks quite markedly
- anti-inflammatory effects [3]: dose-dependent anti-inflammatory effects

Compound: phycocyanobilin
- inhibition of NADPH oxidase superoxide production (NADPH oxidase [4]): dose-dependent inhibition
- inhibitory effect on NADPH oxidase activity compared with DPI (NADPH oxidase [4]; 20 μM): equivalent to that of DPI
- inhibition of NADPH oxidase superoxide production (NADPH oxidase [5]): dose-dependent inhibition
- inhibitory effect on NADPH oxidase activity compared with DPI (NADPH oxidase [5]; 20 μM): less than that of DPI, but was statistically significant
- inhibition of NADPH oxidase superoxide production (NADPH oxidase [6]): dose-dependent inhibition
- inhibitory effect on NADPH oxidase activity compared with DPI (NADPH oxidase [6]; 20 μM): equivalent to that of DPI

Compound: C=CC1=C(C)/C(=C/C2=NC(=C\c3[nH]c(/C=C4\NC(=O)C(C)=C4C=C)c(C)c3CCC(=O)O)/C(CCC(=O)O)=C2C)NC1=O [biliverdin]
- ischemia-reperfusion damage of transplanted organs [7]: ameliorates the ischemia-reperfusion damage
- rejection of cardiac or renal allografts [7]: helps to prevent the rejection
- bioavailability [8]: greater bioavailability than bilirubin
- solubility [9]: far more soluble than bilirubin
- inhibition of NADPH oxidase superoxide production (NADPH oxidase [4]): dose-dependent inhibition
- colitis induced with oral dextran sodium sulfate [10]: substantially ameliorated
- inhibition of NADPH oxidase superoxide production (NADPH oxidase [5]): dose-dependent inhibition
- inhibition of NADPH oxidase superoxide production (NADPH oxidase [6]): dose-dependent inhibition

Compound: c1ccc2c(c1)[I+]c1ccccc1-2 [Diphenyleneiodonium, diphenylene iodonuim cloride]
- inhibition of the excess superoxide production induced by added NADPH (NADPH oxidase [4]; [11]): completely inhibit
- inhibition of the excess superoxide production induced by added NADPH (NADPH oxidase [5]; [11]): completely inhibit
- inhibition of the excess superoxide production induced by added NADPH (NADPH oxidase [6]; [11]): completely inhibit
